{"source": "patent US9877957B2", "about": "“Tetrahydroisoquinoline derivatives useful as inhibitors of diacylglyceride O-acyltransferase 2” (Merck Sharp & Dohme Corp., priority 2014, dated 2018)", "data": [{"target": "hDGAT2 (Homo sapiens (Human), UniProt Q96PD7)", "sequence (Q96PD7 whole entry)": "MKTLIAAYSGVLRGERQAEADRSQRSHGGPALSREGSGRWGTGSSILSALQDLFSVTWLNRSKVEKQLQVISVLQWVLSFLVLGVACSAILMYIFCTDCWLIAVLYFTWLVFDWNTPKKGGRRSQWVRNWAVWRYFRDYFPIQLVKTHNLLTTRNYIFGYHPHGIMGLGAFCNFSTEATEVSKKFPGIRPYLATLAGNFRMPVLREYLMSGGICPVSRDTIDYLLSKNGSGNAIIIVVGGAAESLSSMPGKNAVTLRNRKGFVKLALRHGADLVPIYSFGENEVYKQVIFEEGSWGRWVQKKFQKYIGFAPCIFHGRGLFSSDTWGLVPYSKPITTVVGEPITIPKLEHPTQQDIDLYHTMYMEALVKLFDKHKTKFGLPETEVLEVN", "assay": "DGAT2 Enzymatic Activity Assay (triolein formation, LC/MS/MS)", "format": "biochemical", "conditions": "Sf-9 membrane prep expressing hDGAT2; 25 μM diolein, 10 μM oleoyl-CoA; room temperature; read-out: IC50 values for inhibition of DGAT2", "description": "In Vitro DGAT2 ASSAYS and Determination of IC50 Values for DGAT2 Inhibitors\nInsect Cell Expression and Membrane Preparation\nSf-9 insect cells were maintained in Grace's insect cell culture medium with 10% heated-inactivated fetal bovine serum, 1% Pluronic F-68 and 0.14 μg/ml Kanamycine sulfate in Erlenmeyer flasks at 28° C. in a shaker incubator. After infection with untagged hDGAT2 baculovirus at multiplicity of infection (MOI) 0.1 for 48 hours, cells were harvested. Cell pellets were suspended in buffer containing 10 mM Tris-HCl (pH 7.5), 1 mM EDTA (pH 8.0), 250 mM sucrose and Complete Protease Inhibitor Cocktail (Roche Diagnostics Corp., Indianapolis, Ill.), and sonicated on ice. Membrane fractions were isolated by ultracentrifugation (100,000× g pellet), resuspended in the same buffer, and frozen (−80° C.) for later use. The protein concentration was determined with the BCA Protein Assay kit (Pierce Biotechnology Inc., Rockford, Ill.). Expression of protein levels was analyzed by immunoblotting with goat polyclonal DGAT2 antibody C-15 and donkey anti-goat IgG HRP (Santa Cruz Biotechnology, Inc., Santa Cruz, Calif.) followed by detection with ECL reagent (GE Healthcare, Piscataway, N.J.).\nLC/MS/MS analyses were performed using Thermal Fisher's LX4-TSQ Vantage system. This system consists of an Agilent binary high-performance liquid chromatography (HPLC) pumps and a TSQ Vantage triple quadrupole MS/MS instrument. For each sample, 2 μL samples from the top organic layer of in-plate liquid-liquid extraction were injected onto a Thermo Betabasic C4 column (2.1 mm×20 mm, 5 μm particle size). The samples were then eluted using the following conditions; mobile phase: methanol/water with 0.1% ammonium format=92/8 (v/v), flow rate: 1 mL/min, temperature: 25° C. Data was acquired in positive mode using a heated electrospray ionization (HESI) interface. The operational parameters for the TSQ Vantage MS/MS instrument were a spray voltage of 3000 V, capillary temperature of 280° C., vaporizer temperature 400° C., shealth gas 60 arbitrary unit, Aux gas 40 arbitrary units, S-lens 113 and collision gas 0.16 Pascals. […] (SRM) chromatograms of triolein (Q1: 902.9>Q3:602.3) and internal standard (Q1: 902.9>Q3:602.3) were collected for 40 sec. The peak area was integrated by Xcalibur Quan software. The ratio between the triolein generated in the reaction and spiked in internal standard were used to generate percentage inhibition and IC50 values. Compound percentage inhibition was calculated by the following formula: Inhibition %=1−[(compound response−low control)/(high control−low control)]×100%. Potent compounds were titrated and IC50 were calculated by 4 parameter sigmoidal curve fitting formula.\nDGAT2 Enzymatic Activity Assay\nDGAT2 activity was determined by measuring the amount of enzymatic product triolein (1,2,3-Tri(cis-9-octadecenoyl)glycerol) using the membrane prep mentioned above. The assay was carried out in deep well 384 plates in a final volume of 40 μL at room temperature. The assay mixture contained the following: assay buffer (100 mM Tris·Cl, pH 7.0, 20 mM MgCl2, 5% ethanol), 25 μM of diolein, 10 μM of oleoyl-CoA and 10 ng/μL of DGAT2 membrane.", "units": {"IC50": "µM"}, "values": [{"smiles": "CC(C)(C)NC(=O)N1CCc2c(-c3cccc(C(F)(F)F)c3)ccc(C(=O)NCCn3nnc4ccccc43)c2C1", "note": "[Example 34, N^8-(2-(1H-benzo[d][1,2,3]triazol-1-yl)ethyl)-N^2-(tert-butyl)-5-(3-(trifluoromethyl)phenyl)-3,4-dihydroisoquinoline-2,8(1H)-dicarboxamide]", "IC50": 0.664}, {"smiles": "CC(C)(C)NC(=O)N1CCc2c(-c3cccc(C(F)(F)F)c3)ccc(C(=O)NCc3n[nH]c4c3CCC4)c2C1", "note": "[Example 35, N^2-(tert-butyl)-N^8-((1,4,5,6-tetrahydrocyclopenta[c]pyrazol-3-yl)methyl)-5-(3-(trifluoromethyl)phenyl)-3,4-dihydroisoquinoline-2,8(1H)-dicarboxamide]", "IC50": 0.727}, {"smiles": "CC(C)(C)NC(=O)N1CCc2c(-c3cccc(C(F)(F)F)c3)ccc(C(=O)NCC(c3ccccn3)N3CCOCC3)c2C1", "note": "(stereo not shown) [Example 36, N^2-(tert-butyl)-N^8-(2-morpholino-2-(pyridin-2-yl)ethyl)-5-(3-(trifluoromethyl)phenyl)-3,4-dihydroisoquinoline-2,8(1H)-dicarboxamide]", "IC50": 0.737}, {"smiles": "CC(C)(C)NC(=O)N1CCc2c(-c3cccc(C(F)(F)F)c3)ccc(C(=O)NCCn3nncc3-c3ccccc3)c2C1", "note": "[Example 37, N^2-(tert-butyl)-N^8-(2-(5-phenyl-1H-1,2,3-triazol-1-yl)ethyl)-5-(3-(trifluoromethyl)phenyl)-3,4-dihydroisoquinoline-2,8(1H)-dicarboxamide]", "IC50": 0.739}, {"smiles": "Cc1cc(C(F)(F)F)nc(CCNC(=O)c2ccc(-c3cccc(C(F)(F)F)c3)c3c2CN(C(=O)NC(C)(C)C)CC3)n1", "note": "[Example 38, N^2-(tert-butyl)-N^8-(2-(4-methyl-6-(trifluoromethyl)pyrimidin-2-yl)ethyl)-5-(3-(trifluoromethyl)phenyl)-3,4-dihydroisoquinoline-2,8(1H)-dicarboxamide]", "IC50": 0.854}, {"smiles": "CC(C)(C)NC(=O)N1CCc2c(-c3cccc(C(F)(F)F)c3)ccc(C(=O)NCc3scnc3-c3ccccc3)c2C1", "note": "[Example 39, N^2-(tert-butyl)-N^8-((4-phenylthiazol-5-yl)methyl)-5-(3-(trifluoromethyl)phenyl)-3,4-dihydroisoquinoline-2,8(1H)-dicarboxamide]", "IC50": 0.89}, {"smiles": "CC(C)(C)NC(=O)N1CCc2c(-c3cccc(C(F)(F)F)c3)ccc(C(=O)NCCc3ccccc3C(F)(F)F)c2C1", "note": "[Example 40, N^2-(tert-butyl)-N^8-(2-(trifluoromethyl)phenethyl)-5-(3-(trifluoromethyl)phenyl)-3,4-dihydroisoquinoline-2,8(1H)-dicarboxamide]", "IC50": 0.905}, {"smiles": "Cc1nc(C)c(CNC(=O)c2ccc(-c3cccc(C(F)(F)F)c3)c3c2CN(C(=O)NC(C)(C)C)CC3)s1", "note": "[Example 41, N^2-(tert-butyl)-N^8-((2,4-dimethylthiazol-5-yl)methyl)-5-(3-(trifluoromethyl)phenyl)-3,4-dihydroisoquinoline-2,8(1H)-dicarboxamide]", "IC50": 0.907}, {"smiles": "CC(C)(C)NC(=O)N1CCc2c(-c3cccc(C(F)(F)F)c3)ccc(C(=O)NCCc3ncn[nH]3)c2C1", "note": "[Example 42, N^8-(2-(1H-1,2,4-triazol-5-yl)ethyl)-N^2-(tert-butyl)-5-(3-(trifluoromethyl)phenyl)-3,4-dihydroisoquinoline-2,8(1H)-dicarboxamide]", "IC50": 0.959}, {"smiles": "CC(C)(C)NC(=O)N1CCc2c(-c3cccc(C(F)(F)F)c3)ccc(C(=O)NCCN3CCCc4ccccc43)c2C1", "note": "[Example 43, N^2-(tert-butyl)-N^8-(2-(3,4-dihydroquinolin-1(2H)-yl)ethyl)-5-(3-(trifluoromethyl)phenyl)-3,4-dihydroisoquinoline-2,8(1H)-dicarboxamide]", "IC50": 1.14}, {"smiles": "CC(CNC(=O)c1ccc(-c2cccc(C(F)(F)F)c2)c2c1CN(C(=O)NC(C)(C)C)CC2)n1cccn1", "note": "(stereo not shown) [Example 44, N^8-(2-(1H-pyrazol-1-yl)propyl)-N^2-(tert-butyl)-5-(3-(trifluoromethyl)phenyl)-3,4-dihydroisoquinoline-2,8(1H)-dicarboxamide]", "IC50": 1.2}, {"smiles": "CC(CNC(=O)c1ccc(-c2cccc(C(F)(F)F)c2)c2c1CN(C(=O)NC(C)(C)C)CC2)c1ncco1", "note": "(stereo not shown) [Example 45, N^2-(tert-butyl)-N^8-(2-(oxazol-2-yl)propyl)-5-(3-(trifluoromethyl)phenyl)-3,4-dihydroisoquinoline-2,8(1H)-dicarboxamide]", "IC50": 1.28}, {"smiles": "CC(CNC(=O)c1ccc(-c2cccc(C(F)(F)F)c2)c2c1CN(C(=O)NC(C)(C)C)CC2)c1ccno1", "note": "(stereo not shown) [Example 46, N^2-(tert-butyl)-N^8-(2-(isoxazol-5-yl)propyl)-5-(3-(trifluoromethyl)phenyl)-3,4-dihydroisoquinoline-2,8(1H)-dicarboxamide]", "IC50": 1.3}, {"smiles": "Cc1nnc(CCNC(=O)c2ccc(-c3cccc(C(F)(F)F)c3)c3c2CN(C(=O)NC(C)(C)C)CC3)[nH]1", "note": "[Example 47, N^2-(tert-butyl)-N^8-(2-(5-methyl-4H-1,2,4-triazol-3-yl)ethyl)-5-(3-(trifluoromethyl)phenyl)-3,4-dihydroisoquinoline-2,8(1H)-dicarboxamide]", "IC50": 1.2}, {"smiles": "CC(C)(C)NC(=O)N1CCc2c(-c3cccc(C(F)(F)F)c3)ccc(C(=O)NCCn3cncn3)c2C1", "note": "[Example 48, N^8-(2-(1H-1,2,4-triazol-1-yl)ethyl)-N^2-(tert-butyl)-5-(3-(trifluoromethyl)phenyl)-3,4-dihydroisoquinoline-2,8(1H)-dicarboxamide]", "IC50": 1.41}, {"smiles": "CC(C)(C)NC(=O)N1CCc2c(-c3cccc(C(F)(F)F)c3)ccc(C(=O)NCCc3cn4cccnc4n3)c2C1", "note": "[Example 49, N^2-(tert-butyl)-N^8-(2-(imidazo[1,2-a]pyrimidin-2-yl)ethyl)-5-(3-(trifluoromethyl)phenyl)-3,4-dihydroisoquinoline-2,8(1H)-dicarboxamide]", "IC50": 1.57}, {"smiles": "Cc1noc(C)c1CCNC(=O)c1ccc(-c2cccc(C(F)(F)F)c2)c2c1CN(C(=O)NC(C)(C)C)CC2", "note": "[Example 50, N^2-(tert-butyl)-N^8-(2-(3,5-dimethylisoxazol-4-yl)ethyl)-5-(3-(trifluoromethyl)phenyl)-3,4-dihydroisoquinoline-2,8(1H)-dicarboxamide]", "IC50": 1.97}, {"smiles": "CC(C)(C)NC(=O)N1CCc2c(-c3cccc(C(F)(F)F)c3)ccc(C(=O)NCc3nnc4n3CCC4)c2C1", "note": "[Example 51, N^2-(tert-butyl)-N^8-((6,7-dihydro-5H-pyrrolo[2,1-c][1,2,4]triazol-3-yl)methyl)-5-(3-(trifluoromethyl)phenyl)-3,4-dihydroisoquinoline-2,8(1H)-dicarboxamide]", "IC50": 2.03}, {"smiles": "CC(C)(C)NC(=O)N1CCc2c(-c3cccc(C(F)(F)F)c3)ccc(C(=O)NCCc3ccc(C(F)(F)F)cc3)c2C1", "note": "[Example 52, N^2-(tert-butyl)-N^8-(4-(trifluoromethyl)phenethyl)-5-(3-(trifluoromethyl)phenyl)-3,4-dihydroisoquinoline-2,8(1H)-dicarboxamide]", "IC50": 2.42}, {"smiles": "CC(C)(C)NC(=O)N1CCc2c(-c3cccc(C(F)(F)F)c3)ccc(C(=O)Nc3nonc3-c3nc4ccccc4[nH]3)c2C1", "note": "[Example 53, N^8-(4-(1H-benzo[d]imidazol-2-yl)-1,2,5-oxadiazol-3-yl)-N^2-(tert-butyl)-5-(3-(trifluoromethyl)phenyl)-3,4-dihydroisoquinoline-2,8(1H)-dicarboxamide]", "IC50": 3.34}, {"smiles": "CC(C)(C)NC(=O)N1CCc2c(-c3cccc(C(F)(F)F)c3)ccc(C(=O)NCCc3cnc4ccccn34)c2C1", "note": "[Example 54, N^2-(tert-butyl)-N^8-(2-(imidazo[1,2-a]pyridin-3-yl)ethyl)-5-(3-(trifluoromethyl)phenyl)-3,4-dihydroisoquinoline-2,8(1H)-dicarboxamide]", "IC50": 3.72}, {"smiles": "CC(C)(C)NC(=O)N1CCc2c(-c3cccc(OC(F)(F)F)c3)ccc(C(=O)NCc3cn4cccnc4n3)c2C1", "note": "[Example 55, N^2-(tert-butyl)-N^8-(imidazo[1,2-a]pyrimidin-2-ylmethyl)-5-(3-(trifluoromethoxy)phenyl)-3,4-dihydroisoquinoline-2,8(1H)-dicarboxamide]", "IC50": 2.15}]}]}
